Results on 49 compounds are retold here after patent US20260234144A1 (TAY THERAPEUTICS LIMITED, priority 2023, published 2026).

The subject of this test is R223X stop codon in the mutated luciferase gene, ADXC8 luciferase reporter cell line. The experiment in a line: cells. The format is cell-based. As to conditions: ADXC8 cells, 24 hours; for Fold Over Control: maximum fold response relative to 200 μM G418; for pC100%: negative logarithm of the concentration giving the same response as 200 μM G418; for Emax / EC (100% of 200 uM G418 response): 24 h; for Emax: read-out: Fold Over Control, maximum fold response relative to 200 μM G418; for EC (100% of 200 uM G418 response): read-out: pC100%, negative logarithm of the concentration giving the same response as 200 μM G418.

For `Cc1cc(C)c2c(N)nc(NC34CNCC3C4)nc2n1` (single isomer, unassigned) [Example 260, N^2-(3-azabicyclo[3.1.0]hexan-1-yl)-5,7-dimethylpyrido[2,3-d]pyrimidine-2,4-diamine], the “Fold Over Control” value is “## (Fold over Ctrl > 1 ≤ 30)” and the pC100% entry is “+++ (pC100% > 6.0 ≤ 7.0)”.
`Cc1cc(C)c2c(N)nc(NCCCNCC(F)F)nc2n1` [Example 193]: the Emax fell in the range of 100 to 3000% and the EC (100% of 200 uM G418 response) was 10 to 100 µM.
Take `Cc1cc(C)c2c(N)nc(NCCCN(C)C)nc2n1` [Example 154]: the EC (100% of 200 uM G418 response) is 1 to 10 µM.
Regarding `CNc1ccc2c(N)nc(NC3CCN(C)CC3)nc2n1` [Example 34, N^7-methyl-N2-(1-methylpiperidin-4-yl)pyrido[2,3-d]pyrimidine-2,4,7-triamine], the Emax fell in the range of 100 to 3000% and the EC (100% of 200 uM G418 response) was 10 to 100 µM.
The matching figures for `Cc1cc(C)c2c(N)nc(NCCCN3CC(F)C3)nc2n1` [Example 186]: 100 to 3000% and 10 to 100 µM.
The matching figures for `Cc1cc(C)c2c(N)nc(NCCCN3CCCCC3)nc2n1` [Example 7, 5,7-dimethyl-N^2-(3-(piperidin-1-yl)propyl)pyrido[2,3-d]pyrimidine-2,4-diamine]: 100 to 3000% and 1 to 10 µM.
For the compound `CNc1nc(N[C@@H]2CCCN(C)C2)nc2nc(C)cc(C)c12` [Example 385], the EC (100% of 200 uM G418 response) lay within 0.1 to 1 µM.
On to `CNc1nc(N[C@H]2CNC[C@H]2C)nc2nc(C)cc(C)c12` [Example 380], for which the Emax was 100 to 3000% and the EC (100% of 200 uM G418 response) was in the range of 1 to 10 µM.
The corresponding values for `CN1CCC(Nc2nc(N)c3ccc(-c4cnccn4)nc3n2)CC1` [Example 117] are 0 to 100% and more than 100 µM.
The matching figures for `CN1CCC(Nc2nc(N)c3ccc(-c4ccc(F)cc4)nc3n2)CC1` [Example 57]: 100 to 3000% and 1 to 10 µM.
The matching figures for `C#Cc1cnc2nc(NC3CCN(C)CC3)nc(N)c2c1` [Example 278]: 0 to 100% and more than 31.6 µM.
`Cc1cc(C)c2c(N)nc(NC3CCN(Cc4cn[nH]c4)CC3)nc2n1` [Example 572]: the Emax fell in the range of 100 to 3000% and the EC (100% of 200 uM G418 response) lay within 1 to 10 µM.
The matching figures for `CN1CCC(Nc2nc(N)c3ccc(-c4ccccc4C(=O)N(C)C)nc3n2)CC1` [Example 75]: 0 to 100% and more than 100 µM.
Regarding `CN1CCC(Nc2nc(N)c3ccc(-c4ccc(O)cc4)nc3n2)CC1` [Example 102], the Emax was in the range of 100 to 3000% and the EC (100% of 200 uM G418 response) was 10 to 100 µM.
The corresponding values for `CNc1c(C)c(NCCCN(C)C)nc2nc(C)cc(C)c12` [Example 522, N^2-(3-(dimethylamino)propyl)-N^4,3,5,7-tetramethyl-1,8-naphthyridine-2,4-diamine] are 0 to 100% and more than 31.6 µM.
Take `CNc1cc(N[C@H]2CN(C)C[C@@H]2O)nc2nc3c(c(C)c12)CCC3` [Example 425, (3S,4S)-1-methyl-4-((5-methyl-4-(methylamino)-7,8-dihydro-6H-cyclopenta[b][1,8]naphthyridin-2-yl)amino)pyrrolidin-3-ol]: the EC (100% of 200 uM G418 response) is 0.1 to 1 µM.
The same measure, in the same setting: the value for `Cc1cc(C)c2c(N)nc(N[C@@H]3CCNC[C@@H]3O)nc2n1` [Example 573] was 1 to 10 µM.
As for `CN1CCC(Nc2nc(N)c3ccc(-c4ccccc4C(=O)O)nc3n2)CC1` [Example 87], the Emax was in the range of 0 to 100% and the EC (100% of 200 uM G418 response) is more than 100 µM.
The corresponding values for `CNc1cc(N[C@@H]2CCN(C)C2)nc2nc3c(c(C)c12)CCC3` [Example 258, (R)—N^4,5-dimethyl-N^2-(1-methylpyrrolidin-3-yl)-7,8-dihydro-6H-cyclopenta[b][1,8]naphthyridine-2,4-diamine] are 100 to 3000% and 0.1 to 1 µM.
The corresponding values for `CNC(=O)c1cccc(-c2ccc3c(N)nc(NC4CCN(C)CC4)nc3n2)c1` [Example 80] are 100 to 3000% and 10 to 100 µM.
`CNc1nc(NC2C3CNC2C3)nc2nc(C)cc(C)c12` (single isomer, unassigned) [Example 445]: the “Fold Over Control” value is on record as “## (Fold over Ctrl > 1 ≤ 30)” and the pC100% entry was “++ (pC100% > 5.0 ≤ 6.0)”.
Regarding `Cc1cc(C)c2c(N(C)C)nc(NC3CCN(C)CC3)nc2n1` [Example 262], the Emax was 100 to 3000% and the EC (100% of 200 uM G418 response) is 10 to 100 µM.
The matching figures for `CN1CCC(Nc2nc(N)c3ccc(N(C)C)nc3n2)CC1` [Example 36, N^7,N^7-dimethyl-N^2-(1-methylpiperidin-4-yl)pyrido[2,3-d]pyrimidine-2,4,7-triamine]: 100 to 3000% and 10 to 100 µM.
For `CNc1nc(NC2CN(C)CC23CC3)nc2nc(C)cc(C)c12` (stereo not shown) [Example 408], the EC (100% of 200 uM G418 response) was in the range of 1 to 10 µM.
The same measure, in the same setting: next, `Cc1cccc(-c2ccc3c(N)nc(NC4CCN(C)CC4)nc3n2)c1` [Example 49, N^2-(1-methylpiperidin-4-yl)-7-(m-tolyl)pyrido[2,3-d]pyrimidine-2,4-diamine]: 1 to 10 µM.
For `Cc1cc(C)c2c(N(C)C3CC3)nc(NC3CCN(C)CC3)nc2n1` [Example 265], the Emax was 0 to 100% and the EC (100% of 200 uM G418 response) was more than 100 µM.
The corresponding values for `Cc1cc(C)c2c(N)nc(NCCCN3CCS(=O)(=O)CC3)nc2n1` [Example 8, 4-(3-((4-amino-5,7-dimethylpyrido[2,3-d]pyrimidin-2-yl)amino)propyl)thiomorpholine 1,1-dioxide] are 0 to 100% and more than 100 µM.
The corresponding values for `CNc1nc(N[C@H]2CNC[C@H]2O)nc2nc(C)c3c(c12)CCC3` [Example 345] are 100 to 3000% and 10 to 100 µM.
Consider `CNc1nc(N[C@H]2CN(C)CC[C@H]2O)nc2nc(C)cc(C)c12` [Example 607], for which the EC (100% of 200 uM G418 response) fell in the range of 1 to 10 µM.
`Cc1cc(C)c2c(NCC(N)=O)nc(NC3CCN(C)CC3)nc2n1` [Example 314]: the Emax lay in the range of 0 to 100% and the EC (100% of 200 uM G418 response) was more than 31.6 µM.
The corresponding values for `Cc1cc(C)c2c(N)nc(NC3CCCN(C)CC3)nc2n1` (stereo not shown) [Example 179] are 100 to 3000% and 1 to 10 µM.
The matching figures for `Cc1nc2nc(NC3CCN(C)CC3)nc(N)c2c(-c2ccccc2)c1Cl` [Example 271]: 0 to 100% and more than 31.6 µM.
The corresponding values for `CNc1nc(N[C@H]2CNC[C@@H]2C)nc2nc(C)cc(C)c12` [Example 382] are 100 to 3000% and 1 to 10 µM.
On to `CNc1nc(N[C@@H]2CCN(C)C2)nc2nc(C)c3c(c12)CCC3` [Example 337], for which the EC (100% of 200 uM G418 response) was 0.1 to 1 µM.
For `CCN1CCC(Nc2nc(N)c3c(C)cc(C)nc3n2)CC1` [Example 213], the Emax lay within 100 to 3000% and the EC (100% of 200 uM G418 response) was 1 to 10 µM.
The matching figures for `Cc1cc(C)c2c(N)nc(NC3CCN(CC4CC4)CC3)nc2n1` [Example 145]: 100 to 3000% and 1 to 10 µM.
As to `Cc1cc(C)c2c(N)nc(NC3CCN(Cc4ncco4)CC3)nc2n1` [Example 473], the Emax was 100 to 3000% and the EC (100% of 200 uM G418 response) is 10 to 100 µM.
With `Cc1cc(C)c2c(N)nc(N[C@H]3CNC[C@@H]3O)nc2n1` [Example 293], the EC (100% of 200 uM G418 response) fell in the range of 0.1 to 1 µM.
With `CC(CO)c1ccc2c(N)nc(NC3CCN(C)CC3)nc2n1` (stereo not shown) [Example 240, 2-(4-amino-2-((1-methylpiperidin-4-yl)amino)pyrido[2,3-d]pyrimidin-7-yl)propan-1-ol], the Emax is 0 to 100% and the EC (100% of 200 uM G418 response) is more than 100 µM.
With `CN1CCC(Nc2nc(N)c3ccc(C(F)(F)F)nc3n2)CC1` [Example 18, N^2-(1-methylpiperidin-4-yl)-7-(trifluoromethyl)pyrido[2,3-d]pyrimidine-2,4-diamine], the Emax lay within 100 to 3000% and the EC (100% of 200 uM G418 response) fell in the range of 10 to 100 µM.
The corresponding values for `CNCc1ccc(-c2ccc3c(N)nc(NC4CCN(C)CC4)nc3n2)cc1` [Example 56] are 100 to 3000% and 10 to 100 µM.
`Cc1cc(-c2ccccc2)c2c(N)nc(NC3CCN(C)CC3)nc2n1` [Example 13, 7-methyl-N^2-(1-methylpiperidin-4-yl)-5-phenylpyrido[2,3-d]pyrimidine-2,4-diamine]: the Emax was in the range of 0 to 100% and the EC (100% of 200 uM G418 response) was more than 31.6 µM.
The matching figures for `CN1CCC(Nc2nc(N)c3ccc(-c4ccc(S(C)(=O)=O)cc4)nc3n2)CC1` [Example 54]: 0 to 100% and more than 100 µM.
The corresponding values for `CC(=O)Nc1ccccc1-c1ccc2c(N)nc(NC3CCN(C)CC3)nc2n1` [Example 60] are 0 to 100% and more than 100 µM.
In the case of `CNc1cc(C)c2c(NC)nc(N[C@@H]3CCN(C)C3)nc2n1` [Example 524, (R)—N^4,N^7,5-trimethyl-N^2-(1-methylpyrrolidin-3-yl)pyrido[2,3-d]pyrimidine-2,4,7-triamine], the Emax fell in the range of 100 to 3000% and the EC (100% of 200 uM G418 response) is 1 to 10 µM.
The corresponding values for `CNc1nc(N[C@H]2CN(C(C)C)C[C@@H]2O)nc2nc(C)cc(C)c12` [Example 625] are 100 to 3000% and 1 to 10 µM.
As for `CNc1nc(NC2CNCC2(F)F)nc2nc(C)cc(C)c12` (single isomer, unassigned) [Example 437], the “Fold Over Control” value was “## (Fold over Ctrl > 1 ≤ 30)” and the pC100% entry is listed as “+ (pC100% > 4.0 ≤ 5.0)”.
On to `CN1CCC(Nc2nc(N)c3cc4c(nc3n2)CCC4)CC1` [Example 275], for which the EC (100% of 200 uM G418 response) was 1 to 10 µM.
Consider `Cc1cc(C)c2c(N)nc(NCCN3CC4(CCOC4)C3)nc2n1` [Example 183], for which the Emax is 0 to 100% and the EC (100% of 200 uM G418 response) was more than 31.6 µM.
